Drawing on PubChem BioAssay (NCI), this text covers GI50 and TGI for eight compounds.

Values joined by “and” are separate entries in the source; they are usually repeats but may differ in a detail not shown here. Equal values may be shown once.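 A five-concentration, 48-hour dose response in 96-well plates underlies each endpoint, interpolated linearly between surrounding concentrations. GI50 is the concentration that inhibits growth by half. Definition used: TGI = concentration required for complete inhibition of growth.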

Some test systems named below: SNB-75 CNS; KM12 colon; MALME-3M melanoma; NCI-H23 lung; UACC-257 melanoma; OVCAR-4 ovarian; HCC-2998 colon; DU-145 prostate; SF-295 CNS; M14 melanoma.
Holding throughout (test): NCI-60 cell line screen, 48 h

As for `CCCCCCCCCCCCCOC(=O)c1c(C)[nH]c(/C=C2\N=C(c3ccc[nH]3)C=C2OC)c1C`, the GI50 in the experiment with SNB-75 CNS is 0.919 µM; with KM12 colon it was less than 0.0167 µM; in the experiment on MALME-3M melanoma, 2.6 µM; in the experiment on NCI-H23 lung, 0.244 µM; in the experiment with UACC-257 melanoma it was 0.588 µM; in the experiment on OVCAR-4 ovarian it was 0.425 µM. For the same compound, the GI50 in the experiment with HCC-2998 colon is 0.0307 µM; in the experiment on DU-145 prostate it was 0.0427 µM; in the experiment on SF-295 CNS, 1.75 µM; with M14 melanoma it was 0.0178 µM. Further, the TGI in the experiment with SNB-75 CNS was 10.9 µM; in the experiment with KM12 colon, more than 100 µM; in the experiment with MALME-3M melanoma it was more than 100 µM; in the experiment on NCI-H23 lung, 31.4 µM; with UACC-257 melanoma, more than 100 µM; in the experiment on OVCAR-4 ovarian it was more than 100 µM. Besides, the TGI in the experiment on HCC-2998 colon was more than 44.4 µM; in the experiment on DU-145 prostate, more than 78.9 µM; in the experiment with SF-295 CNS it was 37.7 µM; in the experiment on M14 melanoma it was 0.0461 µM.

For the compound `O=S(=O)(/C=C/C=C/S(=O)(=O)c1ccccc1)c1ccccc1`, the GI50 in the experiment with SNB-75 CNS was 13.9 µM; in the experiment with KM12 colon it was 11.1 µM; in the experiment with MALME-3M melanoma, 1.54 µM; in the experiment with NCI-H23 lung, 1.06 µM; in the experiment on UACC-257 melanoma it was 2 µM; with M14 melanoma, 0.801 µM. Besides, the TGI is 26.8 µM in the experiment with SNB-75 CNS; 4.25 µM and 23.5 µM with KM12 colon; 2.8 µM and 3.01 µM in the experiment with MALME-3M melanoma; 3.14 µM and 2.62 µM in the experiment with NCI-H23 lung; 1.9 µM and 4.82 µM in the experiment on UACC-257 melanoma; 3.28 µM and 3.18 µM in the experiment on OVCAR-4 ovarian. For the same compound, the TGI was 25.1 µM with HCC-2998 colon; 27.7 µM in the experiment on DU-145 prostate; 22.2 µM in the experiment on SF-295 CNS; 1.12 µM and 2.06 µM in the experiment on M14 melanoma.

As for `CC(=O)[O-].CC(=O)[O-].[Mn+2].c1ccc(/C(=N\Nc2ccccn2)c2ccccn2)cc1`, the TGI in the experiment with SNB-75 CNS is 17.7 µM; with KM12 colon, 13.7 µM; with MALME-3M melanoma, 16.8 µM; in the experiment on NCI-H23 lung, 16.7 µM; in the experiment with UACC-257 melanoma, 6.45 µM; in the experiment on OVCAR-4 ovarian, 24.5 µM. In addition, the TGI with HCC-2998 colon was 14.8 µM; with DU-145 prostate it was 11.6 µM; with SF-295 CNS, 16.9 µM; in the experiment with M14 melanoma it was 1.38 µM. In addition, the GI50 in the experiment on MALME-3M melanoma was 0.0362 µM; in the experiment with NCI-H23 lung it was 0.00784 µM; in the experiment on UACC-257 melanoma, 0.0496 µM; in the experiment on M14 melanoma it was 0.0349 µM.

`COc1ccc(-c2coc3ncnc(N)c23)cc1`: the GI50 with SNB-75 CNS, in the experiment with KM12 colon, in the experiment on MALME-3M melanoma, in the experiment on NCI-H23 lung, with UACC-257 melanoma and with OVCAR-4 ovarian was more than 25 µM each time. The GI50 in the experiment on HCC-2998 colon, with DU-145 prostate, with SF-295 CNS and in the experiment on M14 melanoma was more than 25 µM each time. For the same compound, the TGI in the experiment with SNB-75 CNS, with KM12 colon, in the experiment on MALME-3M melanoma, in the experiment on NCI-H23 lung, in the experiment on UACC-257 melanoma and in the experiment on OVCAR-4 ovarian was more than 25 µM throughout. In addition, the TGI with HCC-2998 colon, in the experiment on DU-145 prostate, with SF-295 CNS and with M14 melanoma was more than 25 µM throughout.

As for `Nc1ncc(-c2cnn(C3CCNCC3)c2)cc1-c1nc2ccccc2o1`, the GI50 with SNB-75 CNS was 1.31 µM; with KM12 colon it was 0.0812 µM; in the experiment on MALME-3M melanoma, 1.72 µM; in the experiment on NCI-H23 lung it was 1.35 µM; with UACC-257 melanoma, 2.04 µM; in the experiment on OVCAR-4 ovarian, 1.3 µM. Further, the GI50 was 1.18 µM with HCC-2998 colon, 1.75 µM with DU-145 prostate, 1.54 µM in the experiment on SF-295 CNS and 1.21 µM in the experiment on M14 melanoma. Also, the TGI with SNB-75 CNS worked out at 2.67 µM; in the experiment on KM12 colon, 1.45 µM; in the experiment on MALME-3M melanoma, 3.37 µM; in the experiment with NCI-H23 lung, 12.7 µM; with UACC-257 melanoma, 3.94 µM; with OVCAR-4 ovarian it was 3.53 µM. In addition, the TGI came out at 3.09 µM in the experiment on HCC-2998 colon, 8.86 µM in the experiment with DU-145 prostate, 3.43 µM with SF-295 CNS and 2.54 µM in the experiment on M14 melanoma.

With `COc1ccc(C(=O)/C=C/c2cc3ccccc3[nH]c2=O)cc1`, the GI50 in the experiment on SNB-75 CNS was 15.3 µM; in the experiment with KM12 colon, 16.5 µM; in the experiment with MALME-3M melanoma, 40.8 µM; in the experiment with NCI-H23 lung it was 19.7 µM; in the experiment on UACC-257 melanoma, 25.5 µM; in the experiment on OVCAR-4 ovarian, 19.5 µM. For the same compound, the GI50 was 17.3 µM in the experiment with HCC-2998 colon, 17.8 µM in the experiment with DU-145 prostate, 20.3 µM with SF-295 CNS and 19.3 µM in the experiment with M14 melanoma. Besides, the TGI in the experiment with SNB-75 CNS is 34.8 µM; with KM12 colon, 28.7 µM; with MALME-3M melanoma, more than 100 µM; in the experiment on NCI-H23 lung it was more than 53 µM; in the experiment with UACC-257 melanoma, more than 56.5 µM; in the experiment with OVCAR-4 ovarian it was more than 100 µM. The TGI with HCC-2998 colon is 31.3 µM; in the experiment on DU-145 prostate, 41.9 µM; in the experiment on SF-295 CNS, more than 57.1 µM; in the experiment on M14 melanoma, 47.2 µM.

On to `CC(=O)O[C@H](C[C@H](C(C)C)N(C)C(=O)[C@@H](NC(=O)[C@H]1CCCCN1C)C(C)C)c1nc(C(=O)N[C@@H](Cc2ccccc2)C[C@H](C)C(=O)O)c(C)s1`, for which the GI50 in the experiment with SNB-75 CNS was less than 0.0025 µM; in the experiment on KM12 colon, less than 0.0025 µM; with MALME-3M melanoma, 4.56 µM; in the experiment with NCI-H23 lung, less than 0.0025 µM; in the experiment on UACC-257 melanoma, more than 25 µM; with OVCAR-4 ovarian, more than 25 µM. Also, the GI50 in the experiment with HCC-2998 colon, with DU-145 prostate, in the experiment on SF-295 CNS and with M14 melanoma was less than 0.0025 µM throughout. Moreover, the TGI with SNB-75 CNS, in the experiment on KM12 colon, in the experiment with MALME-3M melanoma, in the experiment with NCI-H23 lung, in the experiment with UACC-257 melanoma and in the experiment on OVCAR-4 ovarian was more than 25 µM in each case. Also, the TGI with HCC-2998 colon, with DU-145 prostate, with SF-295 CNS and with M14 melanoma was more than 25 µM throughout.

In the case of `COc1cc2c(c(OC)c1OC)-c1ccc(OC)c(=O)cc1[C@@H](NC(=O)CCl)CC2`, the GI50 is less than 0.01 µM with SNB-75 CNS; less than 0.01 µM with KM12 colon; 2.51 µM in the experiment with MALME-3M melanoma; less than 0.01 µM in the experiment on NCI-H23 lung; 1.16 µM in the experiment with UACC-257 melanoma; less than 0.01 µM in the experiment with OVCAR-4 ovarian. The GI50 in the experiment on HCC-2998 colon, with DU-145 prostate, in the experiment on SF-295 CNS and in the experiment on M14 melanoma was less than 0.01 µM in each case. Moreover, the TGI with SNB-75 CNS was 54.7 µM; in the experiment with KM12 colon it was 0.0521 µM; in the experiment with MALME-3M melanoma, 26.5 µM; in the experiment with NCI-H23 lung it was more than 33 µM; with UACC-257 melanoma it was 31.8 µM; in the experiment on OVCAR-4 ovarian it was more than 100 µM. The TGI is 22.3 µM with HCC-2998 colon, less than 0.01 µM in the experiment with DU-145 prostate, 0.0743 µM in the experiment with SF-295 CNS and less than 0.01 µM in the experiment with M14 melanoma.
